Literature values in publication PMC9374181 (Toxicology and applied pharmacology, 2022).
Where two headings read alike, the source gives them in different places.

Experiments:
[1] = rat models, IM
[2] = general statement on approved oximes

SMILES | Cmax ([1]; 40 mg/kg, ref Green et al., 1986) [ng/mL] | plasma T1/2 [2] | published half-life (published value, no reference given) | Cmax ([1]; 50 mg/kg, ref Cassel and Fosbraey, 1996) [ng/mL] | plasma T1/2 (ref Cassel and Fosbraey, 1996) [min] | Cmax ([1]; 50 mg/kg, no reference given) [ng/mL] | plasma T1/2 (ref Alioth-Streichenberg et al., 1991) [min]
C[n+]1ccccc1/C=N/O [Oxime 2-PAM, pralidoxime] | 14500 | less than 90 min | less than 2 hours |  |  |  | 
NC(=O)c1cc[n+](COC[n+]2ccccc2/C=N/O)cc1 [asoxime] |  | less than 90 min |  | 900 | 48 |  | 
O/N=C/c1cc[n+](COC[n+]2ccc(/C=N/O)cc2)cc1 [obidoxime] |  | less than 90 min |  |  |  | 26000 | 35
